In PMC10049699, “Identification and Empiric Evaluation of New Inhibitors of the Multidrug Transporter P-Glycoprotein (ABCB1)” (International Journal of Molecular Sciences, 2023):
“Also recorded” adds a separate entry of the source.

Experiments:
Assay type in all cases: cell-based
Flp-In parental cells = assay: Taxol challenge assay, parental cells / growth with inhibitor alone; settings: for effect on the growth of the Flp-In parental cells: test compound at 100 nM; for cytotoxicity of test compound: 100 nM, three-day (72 h) period, cell line not specified
Source text: (§1) The four compounds are potent inhibitors of calcein-AM transport, but can they inhibit the efflux of chemotherapeutic drugs. To address this question, we first substituted a fluorescent derivative of the anticancer drug taxol for calcein-AM in a transport assay. […] We next tested whether the drugs would sensitise the Flp-In-ABCB1 cells to the clinically relevant form of taxol. The Flp-In-ABCB1 cells and their parental Flp-In cells were challenged over a three-day period with a range of concentrations of taxol in the presence and absence of test compounds at 100 nM concentration.
(§2) Flp-In-293 and Flp-In-ABCB1-12His cells (1 × 10^4) were seeded into a 96-well dish in 100 μL of medium, as above. Taxol (Cambridge Bioscience, Cambridge, UK) was added to a final concentration ranging from 0 nM to 10 μM in the presence or absence of inhibitors at 100 nM. The cells were cultured for a further 72 h, after which the medium was aspirated, and the cells were detached with 30 μL TrypLE Express (ThermoFisher Sci, Waltham, MA, USA) before quenching with 75 μL transport buffer and transfer to flow cytometry tubes. Cells of normal size and granularity, gated on the zero-drug condition and then applied to all samples, were counted in an ACEA NovoCyte flow cytometer (Agilent Technologies, Santa Clara, CA, USA). Cell number data were analysed in Graphpad PRISM (MacOS Version 9.4.1; GraphPad Software, San Diego, CA, USA). Curve fitting and statistical analysis was performed as above.

ABCB1 [1] = target: T1, ABCB1 (Homo sapiens, UniProt P08183); assay: OG-taxol efflux inhibition assay in Flp-In-ABCB1 cells, flow cytometry; settings: 100 nM test compound, OG-taxol 0.4 μM
T1 construct: expressed in transfected cells
T1 sequence (P08183 whole entry): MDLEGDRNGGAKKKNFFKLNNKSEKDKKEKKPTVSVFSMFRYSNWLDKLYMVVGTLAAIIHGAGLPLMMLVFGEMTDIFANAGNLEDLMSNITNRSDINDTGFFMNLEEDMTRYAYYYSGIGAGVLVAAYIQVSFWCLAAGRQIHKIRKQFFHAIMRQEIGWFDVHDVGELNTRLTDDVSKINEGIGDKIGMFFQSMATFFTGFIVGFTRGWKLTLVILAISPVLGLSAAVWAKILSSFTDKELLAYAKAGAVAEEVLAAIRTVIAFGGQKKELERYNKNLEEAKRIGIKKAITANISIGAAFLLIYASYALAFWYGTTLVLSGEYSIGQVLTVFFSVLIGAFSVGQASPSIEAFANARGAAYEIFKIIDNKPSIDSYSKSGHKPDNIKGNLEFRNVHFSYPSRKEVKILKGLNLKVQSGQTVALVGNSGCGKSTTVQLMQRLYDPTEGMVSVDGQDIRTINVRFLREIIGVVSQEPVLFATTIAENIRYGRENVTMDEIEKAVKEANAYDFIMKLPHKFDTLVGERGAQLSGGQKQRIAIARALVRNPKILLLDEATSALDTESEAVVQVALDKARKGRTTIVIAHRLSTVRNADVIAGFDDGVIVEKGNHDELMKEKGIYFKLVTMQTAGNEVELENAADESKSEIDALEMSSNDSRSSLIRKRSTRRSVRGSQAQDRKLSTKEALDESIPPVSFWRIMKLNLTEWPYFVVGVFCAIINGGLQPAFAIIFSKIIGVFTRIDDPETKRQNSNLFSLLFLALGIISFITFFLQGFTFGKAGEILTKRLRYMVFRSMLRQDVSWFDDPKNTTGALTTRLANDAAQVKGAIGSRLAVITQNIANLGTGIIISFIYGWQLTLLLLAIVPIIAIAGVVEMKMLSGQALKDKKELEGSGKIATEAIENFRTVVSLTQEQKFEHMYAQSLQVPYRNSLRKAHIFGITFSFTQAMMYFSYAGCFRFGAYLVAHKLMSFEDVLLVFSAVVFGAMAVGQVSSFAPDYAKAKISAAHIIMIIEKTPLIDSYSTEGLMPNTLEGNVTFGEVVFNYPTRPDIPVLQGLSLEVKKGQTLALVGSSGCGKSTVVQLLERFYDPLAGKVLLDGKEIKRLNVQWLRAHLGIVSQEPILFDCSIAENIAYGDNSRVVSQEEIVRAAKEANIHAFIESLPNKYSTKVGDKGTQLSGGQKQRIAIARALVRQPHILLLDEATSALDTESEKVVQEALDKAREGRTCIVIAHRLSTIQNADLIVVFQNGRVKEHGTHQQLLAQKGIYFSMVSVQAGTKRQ
Source text: as §1
(§3) Flp-In-293 and Flp-In-ABCB1-12His cells were grown as monolayers in Dulbecco’s modified Eagle medium (DMEM; ThermoFisher Sci, Waltham, MA, USA) supplemented with 10% foetal bovine serum (FBS; ThermoFisher Sci, Waltham, MA, USA). The cell lines were incubated in a humidified incubator at a temperature of 37 °C in an atmosphere of 5% CO2. For the drug transport assay, cells (3 × 10^5 per well) were seeded in a 24-well, flat-bottomed plate (Sarstedt AG and Co., Nümbrecht, Germany) in 500 μL growth medium and incubated for 24 h, as above. The medium was aspirated, and the cells were washed with the transport buffer (phenol-red free DMEM, with 1% FBS). Next, the cells were incubated with calcein-AM (Invitrogen, Waltham, MA, USA) at 250 nM or OG-taxol (Invitrogen, Waltham, MA, USA) at 0.4 μM in 200 μL transport buffer for 30 min at 37 °C in the presence or absence of inhibitor (Tariquidar was purchased from MedChemExpress (Monmouth Junction, NJ, USA) and the test inhibitors were from Chembridge Corporation (San Diego, CA, USA); Table 2). All test compounds, tariquidar, and calcein-AM were solubilized in DMSO and further diluted in transport buffer for the transport assay. The concentration of DMSO in the final solution never exceeded 1.1%, at which concentration it has no apparent effect on the cells or the function of ABCB1. The medium was then aspirated, and cells were washed with ice-cold transport buffer and harvested with 25 μL trypsin (TrypLE express enzyme; ThermoFisher Sci, Waltham, MA, USA). The cells were recovered in a flow cytometry tube in 300 μL ice-cold transport buffer for flow cytometry using a BD LSR II flow cytometer (Becton Dickinson, Franklin Lakes, NJ, USA).

ABCB1 [2] = target: T1, ABCB1; assay: calcein-AM drug transport (accumulation) assay in live Flp-In-ABCB1 cells, flow cytometry; settings: for IC50: Flp-In-ABCB1 cells, 30 min, n = 3 biological repeats, read-out: IC50 for inhibition of ABCB1 transport activity; for mean bottom plateau value of ABCB1 activity curve (efficacy): ratio of calcein content of ABCB1 non-expressing cells to whole population, full inhibition at 1.0; for effect on ABCB1: preliminary data, up to a concentration of 100 nM
Protocol: We have previously integrated a single copy of pcDNA5/FRT-ABCB1-12His into the genome of Flp-In 293 cells to generate the Flp-In-ABCB1 cell line. To prevent possible drug–drug interactions during the transport assay, the Flp-In-ABCB1 cells were cultured in the absence of hygromycin, which is normally used to select for the continued expression of the hygromycin resistance gene carried on the pcDNA5/FRT plasmid. […] We also used the non-toxic cell-permeant dye calcein-AM as a transport substrate of ABCB1 [35, 36].
The concentration of calcein-AM was titrated until the ABCB1-positive cells began to accumulate calcein. […] This concentration was used in all further live cell transport assays. To test whether the assay could be applied to drug inhibition studies, we incubated the Flp-In-ABCB1 cells with calcein-AM in the presence of the third-generation inhibitor tariquidar.
These are the cells that no longer express ABCB1 (population […] in Figure 2B) due either to deletion of the plasmid from the genome or, perhaps more likely, silencing of the locus by chromatin condensation. These cells survive in the absence of hygromycin selection, but they are useful as they provide an internal negative control that can be easily identified in the single channel histogram at the lowest level of inhibitor. Transport activity of the ABCB1 was, thus, calculated using the fold difference in median drug accumulation by this ABCB1 non-expressing population G4 at the lowest concentration of inhibitor versus the median drug accumulation across all cells (population G5), as described in Equation (1). (1) Median drug accumulation in ABCB1 non−expressing cells G4/Median drug accumulation in the whole population G5
as §3
In order to correlate ABCB1 expression with calcein-AM efflux activity, a slightly different order was used, as described previously. Briefly, the cells were first detached from the well and incubated with saturating levels of primary antibody 4E3 (0.5 μg, Abcam, Cambridge, UK) in 100 μL transport buffer on ice for 30 min. […]

Flp-In-ABCB1 cells = assay: Taxol challenge assay (resensitisation to taxol); settings: test compound at 100 nM, three-day period
Source text: as §1, §2

[3] = Taxol challenge assay (resensitisation to taxol); settings: human; Flp-In-ABCB1 (ABCB1 wt) cells, three-day culture, n = 3; read-out: IC50 for taxol (cell number) in the absence of inhibitor
Source text: as §1, §2

[4] = ratio of IC50 values, calcein-AM assay

SMILES	inhibition of OG-taxol efflux by ABCB1 (ABCB1 [1])	IC50 (ABCB1 [2]; 250 nM calcein-AM) [nM]	fold less potent than tariquidar (ABCB1 [2]; [4]) [fold]	mean bottom plateau value of ABCB1 activity curve (efficacy) (ABCB1 [2])	also measured
O=C1CCC(CCNCc2ccccc2)N1Cc1ccc(-n2cccn2)cc1 (stereo not drawn) [A, 5-[2-(benzylamino)ethyl]-1-[4-(1H-pyrazol-1-yl)benzyl]-2-pyrrolidinone]	inhibition of OG-taxol efflux	1.4	12	1.0	effect on the growth of the Flp-In parental cells (Flp-In parental cells; three-day culture): no effect; also recorded: do not inhibit cell growth; resensitisation of Flp-In-ABCB1 cells to taxol (Flp-In-ABCB1 cells): resensitised
Cc1ccc(CNC(=O)C2CCN(c3cc(C4CC(N)C4)nc(C)n3)CC2)cc1.Cl.Cl (stereo not drawn) [B, 1-[6-(3-aminocyclobutyl)-2-methylpyrimidin-4-yl]-N-(4-methylbenzyl)piperidine-4-carboxamide dihydrochloride]	–	–	–	–	effect on ABCB1 (ABCB1 [2]; 250 nM calcein-AM): no effect
Cc1nnc(NS(=O)(=O)c2ccc3c(c2)CN(C(=O)[C@H](N)C(C)C)CC3)s1 [C, N-(5-methyl-1,3,4-thiadiazol-2-yl)-2-D-valyl-1,2,3,4-tetrahydroisoquinoline-7-sulfonamide]	–	–	–	–	effect on ABCB1 (ABCB1 [2]; 250 nM calcein-AM): no effect
Cc1cccc(N2CCN(CC(=O)Nc3nnc(CCN(C)C)s3)CC2)c1 [D, N-{5-[2-(dimethylamino)ethyl]-1,3,4-thiadiazol-2-yl}-2-[4-(3-methylphenyl)piperazin-1-yl]acetamide]	inhibition of OG-taxol efflux	23.6	200	0.58	effect on the growth of the Flp-In parental cells (Flp-In parental cells; three-day culture): no effect; also recorded: do not inhibit cell growth; fold less potent than test compound 'A' (ABCB1 [2]; [4]): 17 fold; resensitisation of Flp-In-ABCB1 cells to taxol (Flp-In-ABCB1 cells): resensitised
Cc1ccc(N2CCN(c3cc(C4CC(N)C4)nc(N)n3)CC2)cc1C (stereo not drawn) [E, 4-(3-aminocyclobutyl)-6-[4-(3,4-dimethylphenyl)piperazin-1-yl]pyrimidin-2-amine]	inhibition of OG-taxol efflux	14.6	128	0.93	cytotoxicity of test compound (Flp-In parental cells): did kill cells; also recorded: cytotoxic
Cc1cccc(N2CCN(c3cc(C4CC(N)C4)nc(C4CC4)n3)CC2)c1C.Cl.Cl (stereo not drawn) [F, (3-{2-cyclopropyl-6-[4-(2,3-dimethylphenyl)-1-piperazinyl]-4-pyrimidinyl}cyclobutyl)amine dihydrochloride]	inhibition of OG-taxol efflux	4.8	42	0.36	cytotoxicity of test compound (Flp-In parental cells): did kill cells; also recorded: cytotoxic
COc1cc2c(cc1OC)CN(CCc1ccc(NC(=O)c3cc(OC)c(OC)cc3NC(=O)c3cnc4ccccc4c3)cc1)CC2 [Tariquidar, N-[2-[[4-[2-(6,7-dimethoxy-3,4-dihydro-1H-isoquinolin-2-yl)ethyl]phenyl]carbamoyl]-4,5-dimethoxyphenyl]quinoline-3-carboxamide, reference compound]	–	0.114	–	0.78	inhibition of ABCB1 (calcein accumulation to level of parental Flp-In cells) (ABCB1 [2]; 1 nM tariquidar, 250 nM calcein-AM): fully inhibited
CC(=O)O[C@H]1C(=O)[C@@]2(C)[C@H]([C@H](OC(=O)c3ccccc3)[C@]3(O)C[C@H](OC(=O)[C@H](O)[C@@H](NC(=O)c4ccccc4)c4ccccc4)C(C)=C1C3(C)C)[C@]1(OC(C)=O)CO[C@@H]1C[C@@H]2O [taxol, reference compound]	–	–	–	–	IC50 (Flp-In parental cells; 72 h, Flp-In parental cells, three-day culture, n = 3, read-out: IC50 for taxol (cell number) in the absence of inhibitor): 5 nM; IC50 at 72 h [3]: 125 nM
